Assay results from patent US12264159B2, “Functionalized heterocycles as antiviral agents” (Enanta Pharmaceuticals, Inc., priority 2018, dated 2025).

What follows are compounds tested on HBV in 2.2.15 cells (assay: 2.2.15 cells: viral product in cell lysates quantified via quantitative real time PCR). Conditions: Hepatitis B virus, 120 h, day 5 post treatment, 50% reduction of viral product vs no drug controls, readout (qPCR, HBsAg or HBeAg) not specified for the column.
Type: cell-based, hepatitis B virus (HBV)
Experimental: 2.2.15 cells are passaged upon attaining confluency in DMEM/F12 media in the presence of 10% FBS, Penn/Strep, and 250 ug/mL G418. Novel compounds are 5 fold serially diluted in DMSO and added to 96 well plates containing 35,000 cells/well at a 1:200 dilution so that the final concentration of DMSO is 0.5%. On day 5, post treatment cell lysates and supernatants are harvested for analysis.
Cells are lysed using Agilent Sidestep Lysis buffer, diluted 1:100 and quantified via quantitative real time PCR. Commercially available ELISA kits are used to quantitate the viral proteins HBsAg (Alpco) or HBeAg (US Biological) by following the manufacturer's recommended protocol after diluting samples to match the linear range of their respective assays. Irrespective of readout, compound concentrations that reduce viral product accumulation in the cell lysates or supernatants by 50% relative to no drug controls (EC50) are reported; EC50 ranges are as follows: A<0.1 μM; B 0.2-1 μM; C>1 μM.

Compound | EC50
CC(C)(C)[C@@H]1Cn2ncc(-c3ccc(OC(F)(F)F)cc3)c2-c2cc(=O)c(C(=O)O)cn21 [Example 117, (R)-6-(tert-butyl)-10-oxo-1-(4-(trifluoromethoxy)phenyl)-5,6-dihydro-10H-pyrazolo[1,5-a]pyrido[2,1-c]pyrazine-9-carboxylic acid] | > 1000 nM
CC(C)[C@@H]1Cn2nc(-c3cccnc3)c(-c3cccnc3)c2-c2cc(=O)c(C(=O)O)cn21 [Example 177, (R)-6-isopropyl-10-oxo-1,2-di(pyridin-3-yl)-5,6-dihydro-10H-pyrazolo[1,5-a]pyrido[2,1-c]pyrazine-9-carboxylic acid] | 200 to 1000 nM
CC(C)(C)[C@@H]1Cn2nc(-c3ccc(F)cc3)c(Cl)c2-c2cc(=O)c(C(=O)O)cn21 [Example 87, (R)-6-(tert-butyl)-1-chloro-2-(4-fluorophenyl)-10-oxo-5,6-dihydro-10H-pyrazolo[1,5-a]pyrido[2,1-c]pyrazine-9-carboxylic acid] | < 100 nM
CC(C)(C)[C@@H]1Cn2ncc(-c3cccnc3)c2-c2cc(=O)c(C(=O)O)cn21 [Example 118, (R)-6-(tert-butyl)-10-oxo-1-(pyridin-3-yl)-5,6-dihydro-10H-pyrazolo[1,5-a]pyrido[2,1-c]pyrazine-9-carboxylic acid] | < 100 nM
CC(C)(C)[C@@H]1Cn2cc(-c3ccc(F)cc3)nc2-c2cc(=O)c(C(=O)O)cn21 [Example 90, (R)-6-(tert-butyl)-2-(4-fluorophenyl)-10-oxo-5,6-dihydro-10H-imidazo[1,2-a]pyrido[2,1-c]pyrazine-9-carboxylic acid] | 200 to 1000 nM
CC(C)[C@@H]1Cn2nc(C3CC3)c(-c3cncc(F)c3)c2-c2cc(=O)c(C(=O)O)cn21 [Example 135, (R)-2-cyclopropyl-1-(5-fluoropyridin-3-yl)-6-isopropyl-10-oxo-5,6-dihydro-10H-pyrazolo[1,5-a]pyrido[2,1-c]pyrazine-9-carboxylic acid] | < 100 nM
CC(C)[C@@H]1Cn2nc(-c3ccnnc3)c(-c3ccnnc3)c2-c2c(F)c(=O)c(C(=O)O)cn21 [Example 183, (R)-11-fluoro-6-isopropyl-10-oxo-1,2-di(pyridazin-4-yl)-5,6-dihydro-10H-pyrazolo[1,5-a]pyrido[2,1-c]pyrazine-9-carboxylic acid] | 200 to 1000 nM
CC(C)[C@@H]1Cn2nc(C3CC3)c(-c3cnsc3)c2-c2cc(=O)c(C(=O)O)cn21 [Example 138, (R)-2-cyclopropyl-6-isopropyl-1-(isothiazol-4-yl)-10-oxo-5,6-dihydro-10H-pyrazolo[1,5-a]pyrido[2,1-c]pyrazine-9-carboxylic acid] | < 100 nM
CC(C)[C@@H]1Cn2nc(C3CC3)c(-c3ccnnc3)c2-c2cc(=O)c(C(=O)O)cn21 [Example 145, (R)-2-cyclopropyl-6-isopropyl-10-oxo-1-(pyridazin-4-yl)-5,6-dihydro-10H-pyrazolo[1,5-a]pyrido[2,1-c]pyrazine-9-carboxylic acid] | 200 to 1000 nM
Cc1ncc(-c2cnn3c2-c2cc(=O)c(C(=O)O)cn2[C@H](C(C)(C)C)C3)s1 [Example 105, (R)-6-(tert-butyl)-1-(2-methylthiazol-5-yl)-10-oxo-5,6-dihydro-10H-pyrazolo[1,5-a]pyrido[2,1-c]pyrazine-9-carboxylic acid] | 200 to 1000 nM
CC(C)(C)[C@@H]1Cn2ncc(-c3ccncc3)c2-c2cc(=O)c(C(=O)O)cn21 [Example 119, (R)-6-(tert-butyl)-10-oxo-1-(pyridin-4-yl)-5,6-dihydro-10H-pyrazolo[1,5-a]pyrido[2,1-c]pyrazine-9-carboxylic acid] | < 100 nM
CC(C)(C)[C@@H]1Cn2ncc(-c3ccccc3C(F)(F)F)c2-c2cc(=O)c(C(=O)O)cn21 [Example 121, (R)-6-(tert-butyl)-10-oxo-1-(2-(trifluoromethyl)phenyl)-5,6-dihydro-10H-pyrazolo[1,5-a]pyrido[2,1-c]pyrazine-9-carboxylic acid] | > 1000 nM
CC(C)[C@@H]1Cn2nc(-c3cccc(O)c3)c(-c3cccc(O)c3)c2-c2c(F)c(=O)c(C(=O)O)cn21 [Example 190, (R)-11-fluoro-1,2-bis(3-hydroxyphenyl)-6-isopropyl-10-oxo-5,6-dihydro-10H-pyrazolo[1,5-a]pyrido[2,1-c]pyrazine-9-carboxylic acid] | 200 to 1000 nM
CC(C)[C@@H]1Cn2nc(-c3cccc(Cl)c3)c(-c3cccc(Cl)c3)c2-c2c(F)c(=O)c(C(=O)O)cn21 [Example 185, (R)-1,2-bis(3-chlorophenyl)-11-fluoro-6-isopropyl-10-oxo-5,6-dihydro-10H-pyrazolo[1,5-a]pyrido[2,1-c]pyrazine-9-carboxylic acid] | 200 to 1000 nM
CC(C)[C@@H]1Cn2nc(C3CC3)c(-c3cnco3)c2-c2cc(=O)c(C(=O)O)cn21 [Example 139, (R)-2-cyclopropyl-6-isopropyl-1-(oxazol-5-yl)-10-oxo-5,6-dihydro-10H-pyrazolo[1,5-a]pyrido[2,1-c]pyrazine-9-carboxylic acid] | 200 to 1000 nM
CC(C)[C@@H]1Cn2nc(C3CC3)c(-c3ccncc3)c2-c2cc(=O)c(C(=O)O)cn21 [Example 144, (R)-2-cyclopropyl-6-isopropyl-10-oxo-1-(pyridin-4-yl)-5,6-dihydro-10H-pyrazolo[1,5-a]pyrido[2,1-c]pyrazine-9-carboxylic acid] | < 100 nM
CC(C)(C)[C@@H]1Cn2nc(-c3cc(F)ccc3OCC(F)(F)F)c(Cl)c2-c2cc(=O)c(C(=O)O)cn21 [Example 89, (R)-6-(tert-butyl)-1-chloro-2-(5-fluoro-2-(2,2,2-trifluoroethoxy)phenyl)-10-oxo-5,6-dihydro-10H-pyrazolo[1,5-a]pyrido[2,1-c]pyrazine-9-carboxylic acid] | < 100 nM
CC(C)[C@@H]1Cn2nc(-c3ccc(OC4CC4)cc3)c(-c3ccc(OC4CC4)cc3)c2-c2cc(=O)c(C(=O)O)cn21 [Example 176, (R)-1,2-bis(4-cyclopropoxyphenyl)-6-isopropyl-10-oxo-5,6-dihydro-10H-pyrazolo[1,5-a]pyrido[2,1-c]pyrazine-9-carboxylic acid] | 200 to 1000 nM
CC(C)[C@@H]1Cn2nc(C3CC3)c(-c3ccccc3O)c2-c2cc(=O)c(C(=O)O)cn21 [Example 141, (R)-2-cyclopropyl-1-(2-hydroxyphenyl)-6-isopropyl-10-oxo-5,6-dihydro-10H-pyrazolo[1,5-a]pyrido[2,1-c]pyrazine-9-carboxylic acid] | < 100 nM
CCOc1ccccc1-c1nn2c(c1F)-c1cc(=O)c(C(=O)O)cn1[C@H](C(C)(C)C)C2 [Example 92, (R)-6-(tert-butyl)-2-(2-ethoxyphenyl)-1-fluoro-10-oxo-5,6-dihydro-10H-pyrazolo[1,5-a]pyrido[2,1-c]pyrazine-9-carboxylic acid] | < 100 nM
CCOc1ccccc1-c1cnn2c1-c1cc(=O)c(C(=O)O)cn1[C@H](C(C)(C)C)C2 [Example 124, (R)-6-(tert-butyl)-1-(2-ethoxyphenyl)-10-oxo-5,6-dihydro-10H-pyrazolo[1,5-a]pyrido[2,1-c]pyrazine-9-carboxylic acid] | < 100 nM
CC(C)(C)[C@@H]1Cn2nc(C3CC3)c(-c3ccnnc3)c2-c2cc(=O)c(C(=O)O)cn21 [Example 161, (R)-6-(tert-butyl)-2-cyclopropyl-10-oxo-1-(pyridazin-4-yl)-5,6-dihydro-10H-pyrazolo[1,5-a]pyrido[2,1-c]pyrazine-9-carboxylic acid] | 200 to 1000 nM
CC(C)(C)[C@@H]1Cn2ncc(-c3cncnc3)c2-c2cc(=O)c(C(=O)O)cn21 [Example 120, (R)-6-(tert-butyl)-10-oxo-1-(pyrimidin-5-yl)-5,6-dihydro-10H-pyrazolo[1,5-a]pyrido[2,1-c]pyrazine-9-carboxylic acid] | > 1000 nM
CC(C)[C@@H]1Cn2nc(-c3ccncc3)c(-c3ccncc3)c2-c2cc(=O)c(C(=O)O)cn21 [Example 175, (R)-6-isopropyl-10-oxo-1,2-di(pyridin-4-yl)-5,6-dihydro-10H-pyrazolo[1,5-a]pyrido[2,1-c]pyrazine-9-carboxylic acid] | 200 to 1000 nM
O=C(O)c1cn2c(cc1=O)-c1c(-c3ccc(F)cc3)c(-c3ccc(F)cc3)nn1CC2 [Example 200, 1,2-bis(4-fluorophenyl)-10-oxo-5,6-dihydro-10H-pyrazolo[1,5-a]pyrido[2,1-c]pyrazine-9-carboxylic acid] | < 100 nM
CC(C)[C@@H]1Cn2nc(-c3ccnnc3)c(-c3ccnnc3)c2-c2cc(=O)c(C(=O)O)cn21 [Example 173, (R)-6-isopropyl-10-oxo-1,2-di(pyridazin-4-yl)-5,6-dihydro-10H-pyrazolo[1,5-a]pyrido[2,1-c]pyrazine-9-carboxylic acid] | 200 to 1000 nM
CC(C)(C)[C@@H]1Cn2nc(-c3ccc(F)cc3)c(-c3ccoc3)c2-c2cc(=O)c(C(=O)O)cn21 [Example 167, (R)-6-(tert-butyl)-2-(4-fluorophenyl)-1-(furan-3-yl)-10-oxo-5,6-dihydro-10H-pyrazolo[1,5-a]pyrido[2,1-c]pyrazine-9-carboxylic acid] | < 100 nM
CC(C)[C@@H]1Cn2nc(-c3cccnc3)c(-c3cccnc3)c2-c2c(F)c(=O)c(C(=O)O)cn21 [Example 189, (R)-11-fluoro-6-isopropyl-10-oxo-1,2-di(pyridin-3-yl)-5,6-dihydro-10H-pyrazolo[1,5-a]pyrido[2,1-c]pyrazine-9-carboxylic acid] | 200 to 1000 nM
CC(C)[C@@H]1Cn2nc(-c3cncc(F)c3)c(-c3cncc(F)c3)c2-c2cc(=O)c(C(=O)O)cn21 [Example 174, (R)-1,2-bis(5-fluoropyridin-3-yl)-6-isopropyl-10-oxo-5,6-dihydro-10H-pyrazolo[1,5-a]pyrido[2,1-c]pyrazine-9-carboxylic acid] | 200 to 1000 nM
